Where two headings read alike, the source gives them in different places.
Columns and labels:
α3β4 nAChR = α3β4 nAChR (Homo sapiens, UniProt P30926+P32297); test: Radioligand displacement binding assay
Procedure: All binding and functional assays for molecular target characterization were conducted by Eurofins Cerep SA (Celle-Lévescault, France) and Eurofins Panlabs Discovery Services Taiwan, Ltd. (New Taipei City, Taiwan) using their standard in vitro binding and functional assays (Supplementary Material S2). […] Negative values were considered to be an artifact arising from, for example, compounds interfering with the assay readout.
The radioligand displacement binding assays employed the gold standard filtration method using membrane preparations from stable cell lines (HEK-293 or CHO cells) expressing human or rodent target proteins to determine the interaction of the compounds with specific receptors, channels, and transporters. For this purpose, the competitive binding of test compounds against a [^125I]- [^3H]-, or [^35S]-labelled agonist and/or antagonist was determined. The specific list of radiolabeled ligands and experimental conditions are summarized in Supplementary Material S2.

[1] = tested on: dopamine release from striatal synaptosomes; test: In vitro [3H]dopamine release from crude striatal synaptosomes; assay type: biochemical, rat; details: for EC50: striatal synaptosomes
Procedure: In brief, male Sprague Dawley rats (200–225 g) were terminated by cervical dislocation followed by decapitation. The striatums or hippocampi were dissected and homogenized in ice-cold 0.32 M sucrose using a Dounce homogenizer. The homogenates were centrifuged at 100 x g for 5 min to pellet cell debris. The supernatants were collected and centrifuged at 17,000 x g for 10 min at 4°C to pellet crude synaptosomes.
The [^3H]norepinephrine- or [^3H]dopamine-treated crude synaptosomes were loaded onto closed filter chambers containing Whatman® Grade GF/C Glass Microfiber filters (Sigma-Aldrich, Merck KGaA, Darmstadt, Germany) and placed in a superfusion system. […] To ensure an even flow over the synaptosomal bed, trapped air bubbles were removed from the filters prior to collection of the fractions. After a superfusion period of 40 min, three basal fractions (1.5 ml/fraction) were collected first, followed by three fractions (1.5 ml/fraction) containing the test compound. Two additional fractions were collected in the presence of 30 mM KCl to depolarize the synaptosomes. […] Once all fractions were collected, the filters holding the crude synaptosome samples were removed and dried overnight at room temperature. On the following day, the scintillation cocktail was added and the filters were counted to determine residual radioactivity.
Compound-evoked release of neurotransmitters was calculated by subtracting the counts per minute (CPM) in the two basal fractions collected immediately prior to compound addition from those in the two fractions collected immediately following compound addition. The compound-evoked release was then expressed as a percentage of the basal release from that chamber. Potassium-evoked release was calculated by subtracting the CPM in the fraction immediately prior to KCl addition from the CPM in the […] immediately following potassium addition. Stimulated release was calculated as the percentage of basal release for that chamber. The increase in stimulated release above the baseline (no compound) release for that experimental run was determined, and the latter values were plotted on the graphs. Dose–response curves were determined using non-linear curve fitting in Prism (GraphPad Software, Inc, San Diego, CA, United States). All experiments were repeated at least three times.

α6/3β2β3 nAChR = α6/3β2β3 nAChR (Homo sapiens, UniProt P17787+P32297+Q15825); test: nAChR functional assay, automated patch-clamp; assay type: cell-based
α6/3β2β3 nAChR, sequence (Q15825+P32297 fused with the stated changes): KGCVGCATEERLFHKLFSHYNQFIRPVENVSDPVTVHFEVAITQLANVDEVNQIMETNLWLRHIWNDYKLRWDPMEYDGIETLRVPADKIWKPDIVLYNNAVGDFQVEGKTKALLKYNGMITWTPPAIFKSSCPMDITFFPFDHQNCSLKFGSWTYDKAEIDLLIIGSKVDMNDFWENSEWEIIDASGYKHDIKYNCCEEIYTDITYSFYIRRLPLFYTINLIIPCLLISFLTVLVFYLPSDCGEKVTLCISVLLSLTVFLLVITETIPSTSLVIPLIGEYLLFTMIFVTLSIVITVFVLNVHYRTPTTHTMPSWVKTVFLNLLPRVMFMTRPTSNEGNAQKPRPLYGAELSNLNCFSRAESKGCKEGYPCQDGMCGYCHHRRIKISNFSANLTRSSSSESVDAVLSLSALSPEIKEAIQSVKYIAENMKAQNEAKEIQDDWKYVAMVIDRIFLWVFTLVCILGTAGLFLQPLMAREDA
α6/3β2β3 nAChR, sequence (P17787 26-502): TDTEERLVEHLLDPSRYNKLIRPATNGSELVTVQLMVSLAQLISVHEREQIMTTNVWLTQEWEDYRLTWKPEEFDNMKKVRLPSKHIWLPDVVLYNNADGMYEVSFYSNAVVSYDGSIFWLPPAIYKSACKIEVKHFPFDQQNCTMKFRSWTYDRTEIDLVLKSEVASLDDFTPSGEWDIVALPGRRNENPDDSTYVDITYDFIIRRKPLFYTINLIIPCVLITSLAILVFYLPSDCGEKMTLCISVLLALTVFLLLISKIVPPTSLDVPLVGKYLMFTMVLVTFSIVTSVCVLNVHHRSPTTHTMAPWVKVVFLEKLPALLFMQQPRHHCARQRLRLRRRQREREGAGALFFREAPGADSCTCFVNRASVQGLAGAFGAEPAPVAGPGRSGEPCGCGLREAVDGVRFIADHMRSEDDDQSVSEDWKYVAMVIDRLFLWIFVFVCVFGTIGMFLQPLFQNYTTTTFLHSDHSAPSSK
α6/3β2β3 nAChR, sequence (Q05901 25-458 partner limits assumed): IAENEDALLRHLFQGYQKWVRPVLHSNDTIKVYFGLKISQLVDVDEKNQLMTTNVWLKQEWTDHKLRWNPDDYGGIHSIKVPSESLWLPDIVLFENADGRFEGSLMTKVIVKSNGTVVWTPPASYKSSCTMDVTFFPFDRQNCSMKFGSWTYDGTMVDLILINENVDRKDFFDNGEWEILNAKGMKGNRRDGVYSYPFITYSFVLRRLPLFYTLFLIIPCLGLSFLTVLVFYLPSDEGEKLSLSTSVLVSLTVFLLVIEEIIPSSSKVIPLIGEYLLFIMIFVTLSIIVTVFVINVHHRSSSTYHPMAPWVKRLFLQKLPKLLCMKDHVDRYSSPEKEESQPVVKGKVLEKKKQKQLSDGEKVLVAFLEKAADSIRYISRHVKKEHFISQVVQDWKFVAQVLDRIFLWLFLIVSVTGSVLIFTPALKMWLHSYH
Procedure: (§1) Electrophysiological responses were recorded using an automated patch-clamp Patchliner Octo® system (Nanion Technologies, Munich, Germany) equipped with two EPC-10 Quadro patch-clamp amplifiers (HEKA Elektronik, Lambrecht, Germany) as described by ([Alijevic et al., 2020]). In brief, Chinese hamster ovary (CHO) or human embryonic kidney-293 (HEK-293) cells stably expressing human nAChRs (Charles River Laboratories, Wilmington, MA, United States) were maintained in DMEM/F12 medium (Gibco, Thermo Fisher Scientific, Waltham, MA, United States) supplemented with 10% heat-inactivated fetal bovine serum (FBS; Gibco) and penicillin–streptomycin (100 U/mL and 0.1 mg/ml, respectively; Sigma-Aldrich, St. Louis, MO, United States) at 37°C in 5% CO2 and 70% humidity. The following selection antibiotics were used for the cell lines: G418 (0.25 mg/ml; Sigma-Aldrich) and Zeocin^TM (0.4 mg/ml; InvivoGen, San Diego, CA, United States) for α7/Ric3 nAChR and α3β4 nAChR cells; puromycin (8 μg/ml; InvivoGen) and hygromycin B (0.4 mg/ml; Gibco) for α4β2 nAChR cells; and G418 (0.5 mg/ml), puromycin (0.25 μg/ml), and hygromycin B (0.02 mg/ml) for α6/3β2/β3 nAChR cells. The cells were used for characterizing nAChR pharmacology, because no endogenous ionotropic nicotinic receptors are found ([Roncarati et al., 2008]; [Papke and Smith-Maxwell, 2009]; [Kirsch et al., 2016]; [Scheffel et al., 2018]). The subunit distributions in the cells have been previously described ([Alijevic et al., 2020]). The human nAChRs were selected due to the lack of commercially available nAChR expression systems for mouse or zebrafish. The translatability of findings between zebrafish and human nAChR activities have been previously reported ([Papke and Smith-Maxwell, 2009]; [Papke et al., 2012]; [Alijevic et al., 2020]).
(§2) On the day of the experiment, nAChR-expressing cells were suspended in extracellular solution (in mM: 140 NaCl, 4KCl, one MgCl2, two CaCl2, five glucose, and 10 HEPES, adjusted to pH 7.4 with NaOH (298 mOsmol)), then placed in the Patchliner Octo® system. The internal solution contained in mM: 50 KCl, 60 kF, 10 NaCl, 20 EGTA, and 10 HEPES, adjusted to pH 7.2 with KOH (285 mOsmol). […] Data were analyzed using the Patchmaster software and corrected for leak current. The data acceptance criteria were as follows: seal resistance >100 MΩ; seal resistance loss variation <50%; access resistance <20 MΩ; and minimum current amplitude elicited by maximal effect concentration acetylcholine >50 pA. Offline data analysis was performed in OpenOffice™ (v4.1.2; The Apache Software Foundation, Wakefield, MA, United States). Data are presented as mean ± S.D. All experiments were performed at room temperature (24°C) and repeated at least three times. Igor Pro (v6.2.2.2; WaveMetrics, Lake Oswego, OR, United States) or Prism (v8.2.1) were used for assessing the concentration–response curves.

α4β2 nAChR = α4β2 nAChR (Homo sapiens, UniProt P17787+P43681); test: nAChR functional assay, automated patch-clamp; assay type: cell-based
α4β2 nAChR, sequence (P43681 29-627 limits assumed): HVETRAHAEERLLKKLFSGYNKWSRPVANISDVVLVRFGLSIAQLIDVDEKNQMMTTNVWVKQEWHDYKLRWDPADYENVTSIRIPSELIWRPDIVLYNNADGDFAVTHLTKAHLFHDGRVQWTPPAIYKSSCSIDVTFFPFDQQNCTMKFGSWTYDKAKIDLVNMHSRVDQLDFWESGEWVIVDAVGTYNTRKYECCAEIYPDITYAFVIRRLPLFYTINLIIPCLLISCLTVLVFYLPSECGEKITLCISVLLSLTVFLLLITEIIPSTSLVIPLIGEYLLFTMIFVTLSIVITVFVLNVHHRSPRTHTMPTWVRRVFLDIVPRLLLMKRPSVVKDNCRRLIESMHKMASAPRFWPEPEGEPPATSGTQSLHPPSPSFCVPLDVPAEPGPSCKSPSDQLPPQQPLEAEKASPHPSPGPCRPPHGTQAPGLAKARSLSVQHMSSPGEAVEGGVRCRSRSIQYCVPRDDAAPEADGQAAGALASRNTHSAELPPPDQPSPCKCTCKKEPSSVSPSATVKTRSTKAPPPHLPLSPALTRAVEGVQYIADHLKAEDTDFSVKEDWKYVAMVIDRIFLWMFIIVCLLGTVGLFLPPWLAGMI
α4β2 nAChR, sequence (P17787 26-502): as the sequence (P17787 26-502) above
Procedure: as §1, §2

α3β4 nAChR, sequence (P32297 32-505): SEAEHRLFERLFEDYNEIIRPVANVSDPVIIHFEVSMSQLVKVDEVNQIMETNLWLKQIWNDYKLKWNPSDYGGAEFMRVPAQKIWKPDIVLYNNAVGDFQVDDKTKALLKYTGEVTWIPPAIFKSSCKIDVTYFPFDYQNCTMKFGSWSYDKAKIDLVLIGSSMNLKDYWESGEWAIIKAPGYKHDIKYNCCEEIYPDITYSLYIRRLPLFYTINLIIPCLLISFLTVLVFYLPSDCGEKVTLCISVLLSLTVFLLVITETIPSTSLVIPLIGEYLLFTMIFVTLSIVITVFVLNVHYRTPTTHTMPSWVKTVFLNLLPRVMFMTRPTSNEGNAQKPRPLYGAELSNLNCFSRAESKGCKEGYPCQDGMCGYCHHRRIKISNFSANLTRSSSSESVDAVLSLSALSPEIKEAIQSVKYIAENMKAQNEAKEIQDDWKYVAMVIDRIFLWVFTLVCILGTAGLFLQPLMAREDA
α3β4 nAChR, sequence (P30926 22-498): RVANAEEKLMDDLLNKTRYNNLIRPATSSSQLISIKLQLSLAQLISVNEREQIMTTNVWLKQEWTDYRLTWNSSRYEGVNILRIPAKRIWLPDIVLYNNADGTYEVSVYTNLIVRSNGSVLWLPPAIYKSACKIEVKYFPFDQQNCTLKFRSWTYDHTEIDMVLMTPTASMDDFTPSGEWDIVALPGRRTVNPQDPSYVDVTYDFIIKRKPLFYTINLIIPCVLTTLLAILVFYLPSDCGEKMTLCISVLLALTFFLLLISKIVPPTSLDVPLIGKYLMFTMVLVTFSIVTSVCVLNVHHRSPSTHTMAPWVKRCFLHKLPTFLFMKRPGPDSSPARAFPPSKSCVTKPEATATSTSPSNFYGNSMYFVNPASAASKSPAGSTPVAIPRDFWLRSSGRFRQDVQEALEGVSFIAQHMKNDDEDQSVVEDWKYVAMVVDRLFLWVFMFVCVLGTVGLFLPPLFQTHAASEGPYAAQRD

SMILES | IC50 (α3β4 nAChR) [nM] | EC50 [1] [nM] | EC50 (α6/3β2β3 nAChR) [nM] | partial activation of α6-containing nAChRs, % of nicotine (α6/3β2β3 nAChR; preliminary data) | % of the full receptor activity, α6/3β2β3 nAChR (α6/3β2β3 nAChR; preliminary, data not shown) [%] | % of the full receptor activity, α4β2 nAChR (α4β2 nAChR; preliminary, data not shown) [%] | agonist type at α6/3β2β3 nAChR (α6/3β2β3 nAChR) | agonist type at α4β2 nAChR (α4β2 nAChR) | binding for α3β4 nAChR (α3β4 nAChR) | dopamine release ([1]; at higher concentrations) | EC50 (α6/3β2β3 nAChR; mean ± S.D., read-out: α6/3β2β3 EC50) [nM] | EC50 (α4β2 nAChR; mean ± S.D.) [nM]
C1=CCC(c2cccnc2)NC1 (racemic) [Anatabine, (±)-Anatabine] | 960 ± 200 | 1760 | 3600 ± 300 | approximately 67% | ~70 | ~60 |  |  |  |  |  | 
CN1CCC[C@H]1c1cccnc1 [Nicotine, (-)-Nicotine] |  | 190 |  |  |  |  | potent full agonist | potent full agonist |  |  |  | 
CN1C(=O)CC[C@H]1c1cccnc1 [Cotinine, (-)-cotinine] |  |  |  |  |  |  |  |  | undetectable | 20–30% | > 100000 | > 100000
